A value given as a limit tells only on which side of the number the result lay.

This assay concerns the target T1, CDK2 (Homo sapiens, UniProt P24941).
T1 construct: endogenous in cells; host or cells: OVCAR3 cells
Put plainly: Phospho-RB measurement in OVCAR3 cells (HTRF phospho-RB cellular kit). In kind it is cell-based. The note with it: inhibition of RB phosphorylation at S807/811 (HTRF, TR-FRET ratio 665/620), 24 h compound treatment, 0.3 to 10,000 nM. The method, boiled down:
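IC50 came from a four-parameter logistic fit of the DMSO-normalized TR-FRET ratio (665/620 nm). That ratio reflects RB phosphorylation at S807/811, read with an HTRF antibody pair 4 h after adding lysate at room temperature.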
For the compound `CC(C)(C)OC(=O)N1CCN(c2ccc(Nc3nccc(-c4sc(C(C)(C)C)nc4-c4cccc(NS(=O)(=O)N5CCc6ccc(C#N)cc65)c4F)n3)cc2)CC1` [Example 235, tert-butyl 4-(4-((4-(2-(tert-butyl)-4-(3-((6-cyanoindoline)-1-sulfonamido)-2-fluorophenyl)thiazol-5-yl)pyrimidin-2-yl)amino)phenyl) piperazine-1-carboxylate], the IC50 was found to be 3390 nM.
Regarding `COc1ccc2c(c1)CN(S(=O)(=O)Nc1cccc(-c3nc(C(C)(C)C)sc3-c3ccnc(NC4CCN(S(C)(=O)=O)CC4)n3)c1F)C2` [Example 72, N-(3-(2-(tert-butyl)-5-(2-((1-(methylsulfonyl)-piperidin-4-yl)amino)-pyrimidin-4-yl)thiazol-4-yl)-2-fluoro-phenyl)-5-methoxyisoindoline-2-sulfonamide], the IC50 is 185 nM.
`CC(C)(C)c1nc(-c2cccc(NS(=O)(=O)N3CCc4ccc(C#N)cc43)c2F)c(-c2ccnc(NC3CC4(C3)CN(S(C)(=O)=O)C4)n2)s1` [Example 200, N-(3-(2-(tert-butyl)-5-(2-((2-(methylsulfonyl)-2-azaspiro [3.3]heptan-6-yl)amino)pyrimidin-4-yl)thiazol-4-yl)-2-fluorophenyl)-6-cyanoindoline-1-sulfonamide]: the IC50 stood at 247 nM.
The result for `CC(C)(C)c1nc(-c2cccc(NS(=O)(=O)N3Cc4ccc(C#N)cc4C3)c2F)c(-c2ccnc(NC3CCN(S(=O)(=O)N4CCNCC4)CC3)n2)s1` [Example 149, N-(3-(2-(tert-butyl)-5-(2-((1-(piperazin-1-ylsulfonyl)piperidin-4-yl)amino)-pyrimidin-4-yl)thiazol-4-yl)-2-fluoro-phenyl)-5-cyanoisoindoline-2-sulfonamide] reads 488 nM; that for `CN(C)S(=O)(=O)Nc1cccc(-c2nc(C(C)(C)C)sc2-c2ccnc(NC3CCN(S(=O)(=O)N4CCNCC4)CC3)n2)c1F` [Example 96, N-(3-(2-(tert-butyl)-5-(2-((1-(piperazin-1-ylsulfonyl)piperidin-4-yl)amino)-pyrimidin-4-yl)thiazol-4-yl)-2-fluorophenyl) dimethylamine-sulfonamide], 454 nM.
On to `COc1ccc2c(c1)N(S(=O)(=O)Nc1cccc(-c3nc(C45CC(C4)C5)sc3-c3ccnc(NC4CC5(C4)CS(=O)(=O)C5)n3)c1F)CC2` [Example 20, N-(3-(2-(bicyclo [1.1.1]pentan-1-yl)-5-(2-((2,2-dioxido-2-thiaspiro[3.3]heptan-6-yl)amino)-pyrimidin-4-yl)thiazol-4-yl)-2-fluorophenyl)-6-methoxyindoline-1-sulfonamide], for which the IC50 was found to be 208 nM.
For `CC1CCN(S(=O)(=O)Nc2cccc(-c3nc(C(C)(C)C)sc3-c3ccnc(NC4CCN(S(C)(=O)=O)CC4)n3)c2F)CC1` [Example 63, N-(3-(2-(tert-butyl)-5-(2-((1-(methylsulfonyl)-piperidin-4-yl)amino)-pyrimidin-4-yl)thiazol-4-yl)-2-fluoro-phenyl)-4-methylpiperidine-1-sulfonamide] the value was 679 nM; for `CN1CCN(c2ccc(Nc3nccc(-c4sc(C(C)(C)C)nc4-c4cccc(NS(=O)(=O)N5CCc6ccc(C#N)cc65)c4F)n3)cc2)CC1` [Example 249, N-(3-(2-(tert-butyl)-5-(2-((4-(4-methyl-piperazin-1-yl)phenyl)amino)pyrimidin-4-yl)-thiazol-4-yl)-2-fluoro-phenyl)-6-cyanoindoline-1-sulfonamide], 684 nM; for `O=S1(=O)CC2(CC(Nc3nccc(-c4sc(N5C6CCC5CN(C5CC(F)(F)C5)C6)nc4-c4cccc(NS(=O)(=O)N5Cc6cccc(C(F)F)c6C5)c4F)n3)C2)C1` [Example 52, N-(3-(2-(3-(3,3-difluorocyclobutyl)-3,8-diazabicyclo [3.2.1]octan-8-yl)-5-(2-((2,2-dioxido-2-thiaspiro[3.3]heptan-6-yl)amino)-pyrimidin-4-yl)thiazol-4-yl)-2-fluorophenyl)-4-(difluoromethyl)-isoindoline-2-sulfonamide], 160 nM.
The result for `CN1CC2CCC(C1)N2c1nc(-c2cccc(NS(=O)(=O)N3Cc4cccc(C(F)F)c4C3)c2F)c(-c2ccnc(NC3CC4(C3)CS(=O)(=O)C4)n2)s1` [Example 18, 4-(difluoromethyl)-N-(3-(5-(2-((2,2-dioxido-2-thiaspiro [3.3]heptan-6-yl)amino)pyrimidin-4-yl)-2-(3-methyl-3,8-diazabicyclo [3.2.1]octan-8-yl)thiazol-4-yl)-2-fluorophenyl)-isoindoline-2-sulfonamide] reads 24.8 nM.
On to `CC(C)(C)c1nc(-c2cccc(NS(=O)(=O)N3Cc4cccc(Oc5ccccc5)c4C3)c2F)c(-c2ccnc(NC3CC4(C3)CS(=O)(=O)C4)n2)s1` [Example 210, N-(3-(2-(tert-butyl)-5-(2-((2,2-dioxido-2-thiaspiro[3.3]heptan-6-yl)amino)-pyrimidin-4-yl)thiazol-4-yl)-2-fluoro-phenyl)-4-phenoxy-isoindoline-2-sulfonamide], for which the concentration for half-maximal inhibition (IC50) came out at 505 nM.
For `CNCc1cccc2c1CCN2S(=O)(=O)Nc1cccc(-c2nc(C(C)(C)C)sc2-c2ccnc(NC3CCN(S(C)(=O)=O)CC3)n2)c1F` [Example 134, N-(3-(2-(tert-butyl)-5-(2-((1-(methylsulfonyl)-piperidin-4-yl)amino)-pyriidin-4-yl)thiazol-4-yl)-2-fluoro-phenyl)-4-((methylamino)methyl)-indoline-1-sulfonamide] the value was 589 nM.
`CN(C)Cc1ccc2c(c1)CCN2S(=O)(=O)Nc1cccc(-c2nc(C(C)(C)C)sc2-c2ccnc(NC3CCN(S(C)(=O)=O)CC3)n2)c1F` [Example 189, N-(3-(2-(tert-butyl)-5-(2-((1-(methylsulfonyl)-piperidin-4-yl)amino)-pyrimidin-4-yl)thiazol-4-yl)-2-fluoro-phenyl)-5-((dimethylamino)-methyl)-indoline-1-sulfonamide]: the concentration for half-maximal inhibition (IC50) was 1550 nM.
For `O=S1(=O)CC2(CC(Nc3nccc(-c4sc(C56CC(C5)C6)nc4-c4cccc(NS(=O)(=O)N5CCc6c(F)cc(F)cc65)c4F)n3)C2)C1` [Example 37, N-(3-(2-(bicyclo [1.1.1]pentan-1-yl)-5-(2-((2,2-dioxido-2-thiaspiro[3.3]heptan-6-yl)amino)-pyrimidin-4-yl)thiazol-4-yl)-2-fluorophenyl)-4,6-difluoroindoline-1-sulfonamide] the value was 74.5 nM.
For `CN1CCN(S(=O)(=O)N2CCC(Nc3nccc(-c4sc(C(C)(C)C)nc4-c4cccc(NS(=O)(=O)N5CCNc6ccccc6C5)c4F)n3)CC2)CC1` [Example 138, N-(3-(2-(tert-butyl)-5-(2-((1-((4-methylpiperazin-1-yl)sulfonyl)piperidin-4-yl)amino)pyrimidin-4-yl)thiazol-4-yl)-2~fluorophenyl)-1,2,3,5-tetrahydro-4H-benzo[e][1,4] diazepine-4-sulfonamide] the value was 396 nM; for `CN1CCN(S(=O)(=O)Nc2cccc(-c3nc(C(C)(C)C)sc3-c3ccnc(NC4CCN(S(C)(=O)=O)CC4)n3)c2F)Cc2ccccc21` [Example 137, N-(3-(2-(tert-butyl)-5-(2-((1-(methylsulfonyl)-piperidin-4-yl)amino)-pyrimidin-4-yl)thiazol-4-yl)-2-fluoro-phenyl)-1-methyl-1,2,3,5-tetrahydro-4H-benzo[e][1,4] diazepine-4-sulfonamide], 286 nM.
Regarding `CC(C)(C)c1nc(-c2cccc(NS(=O)(=O)N3CCc4c(C#N)cccc43)c2F)c(-c2ccnc(NC3CCN(S(=O)(=O)N4CCNCC4)CC3)n2)s1` [Example 124, N-(3-(2-(tert-butyl)-5-(2-((1-(piperazin-1-ylsulfonyl)piperidin-4-yl)amino)-pyrimidin-4-yl)thiazol-4-yl)-2-fluoro-phenyl)-4-cyanoindoline-1-sulfonamide], the half-maximal inhibitory concentration (IC50) is 151 nM.
For the compound `CC(C)(C)c1nc(-c2cccc(NS(=O)(=O)N3Cc4ccc(C(F)F)cc4C3)c2F)c(-c2ccnc(NC3CC4(C3)CS(=O)(=O)C4)n2)s1` [Example 255, N-(3-(2-(tert-butyl)-5-(2-((2,2-dioxido-2-thiaspiro[3.3]heptan-6-yl)amino)-pyrimidin-4-yl)thiazol-4-yl)-2-fluoro-phenyl)-5-(difluoromethyl) isoindoline-2-sulfonamide], the half-inhibitory concentration (IC50) amounted to 683 nM.
For `CNc1cccc2c1N(S(=O)(=O)Nc1cccc(-c3nc(C(C)(C)C)sc3-c3ccnc(NC4CCN(S(C)(=O)=O)CC4)n3)c1F)CC2` [Example 258, N-(3-(2-(tert-butyl)-5-(2-((1-(methylsulfonyl)-piperidin-4-yl)amino)-pyrimidin-4-yl)thiazol-4-yl)-2-fluoro-phenyl)-7-(methylamino) indoline-1-sulfonamide] the value was 435 nM; for `CC1CCCCN1S(=O)(=O)Nc1cccc(-c2nc(C(C)(C)C)sc2-c2ccnc(NC3CCN(S(C)(=O)=O)CC3)n2)c1F` (stereo not shown) [Example 66, N-(3-(2-(tert-butyl)-5-(2-((1-(methylsulfonyl)-piperidin-4-yl)amino)-pyrimidin-4-yl)thiazol-4-yl)-2-fluoro-phenyl)-2-methylpiperidine-1-sulfonamide], more than 5000 nM; for `O=S1(=O)CC2(CC(Nc3nccc(-c4sc(C56CC(C5)C6)nc4-c4cccc(NS(=O)(=O)N5CCc6cc(C(F)(F)F)ccc65)c4F)n3)C2)C1` [Example 35, N-(3-(2-(bicyclo [1.1.1]pentan-1-yl)-5-(2-((2,2-dioxido-2-thiaspiro[3.3]heptan-6-yl)amino)-pyrimidin-4-yl)thiazol-4-yl)-2-fluorophenyl)-5-(trifluoromethyl)-indoline-1-sulfonamide], 1590 nM.
For `C[C@H]1Cc2ccccc2N1S(=O)(=O)Nc1cccc(-c2nc(C(C)(C)C)sc2-c2ccnc(NC3CCN(S(=O)(=O)N4CCNCC4)CC3)n2)c1F` [Example 147, (S)-N-(3-(2-(tert-butyl)-5-(2-((1-(piperazin-1-ylsulfonyl)piperidin-4-yl)amino)pyrimidin-4-yl)thiazol-4-yl)-2-fluorophenyl)-2-methylindoline-1-sulfonamide] the value was 458 nM.

For the origin of these results see patent US20260274833A1 (NiKang Therapeutics, Inc., priority 2022, published 2026).
